Laboratory results reported in patent US20230041563A1, “N-(1,3,4-OXADIAZOL-2-YL)ARYLCARBOXAMIDES OR SALTS THEREOF, PREPARATION METHODS, HERBICIDAL COMPOSITIONS AND USES THEREOF” (priority 2018, published 2023).
Read-outs that look alike come from different tables or passages of the source.

Test system: weeds
Assay: Actual control effects and combined effects of mixtures of active ingredients (i) and (ii), stem-leaf treatment, Gowing method
Format: in vivo
Conditions: 20 days
Protocol: According to the actual control effect and the property of the herbicides, the balance of the formula and other factors, the optimal ratio was determined. In the calculation formula: X represents the fresh weight inhibition rate when the active ingredient (i) is used in an amount of P; and Y represents the fresh weight inhibition rate when the active ingredient (ii) is used in an amount of Q. The statistical results are shown in Tables 9-11 below.

[1] = Monochoria vaginalis, (ii) 1 g a.i./mu
[2] = 480 h, Echinochloa phyllopogon, (ii) 15 g a.i./mu, stem-leaf treatment, read-out: Control effect of (ii) alone at corresponding dose
[3] = Echinochloa phyllopogon, (ii) 3 g a.i./mu
[4] = Echinochloa phyllopogon, (ii) 15 g a.i./mu
[5] = Echinochloa phyllopogon, (ii) 0.6 g a.i./mu
[6] = Echinochloa phyllopogon, (ii) 0.6 g a.i./mu, stem-leaf treatment

## C#CCN(C)c1c(C#N)cnn1-c1nn2c(c1Cl)CCCC2 [Pyraclonil]
Sagittaria trifolia L., (ii) 0.6 g a.i./mu
  Control effect of (ii) alone at corresponding dose: 9.3%
Sagittaria trifolia L., (ii) 15 g a.i./mu
  Control effect of (ii) alone at corresponding dose: 72.5%
Sagittaria trifolia, (ii) 15 g a.i./mu, stem-leaf treatment
  Control effect of (ii) alone at corresponding dose: 72.5%

## CCOC(=O)c1cnn(C)c1S(=O)(=O)NC(=O)Nc1nc(OC)cc(OC)n1 [Pyrazosulfuron-ethyl]
[1]
  Control effect of (ii) alone at corresponding dose: 75.6%
Pontederia vaginalis, 480 h, Monochoria vaginalis, (ii) 0.6 g a.i./mu, read-out: Control effect of (ii) alone at corresponding dose
  pest or weed control at 9 g/ha: 54.5%
Pontederia vaginalis, 480 h, Monochoria vaginalis, (ii) 1 g a.i./mu, stem-leaf treatment, read-out: Control effect of (ii) alone at corresponding dose
  pest or weed control at 15 g/ha: 75.6%

## CCCCCCCCSC(=O)Oc1cc(Cl)nnc1-c1ccccc1 [Pyridate]
480 h, Cyperus difformis, (ii) 1.8 g a.i./mu, read-out: Control effect of (ii) alone at corresponding dose
  pest or weed control at 27 g/ha: 12.9%
480 h, Cyperus difformis, (ii) 15 g a.i./mu, stem-leaf treatment, read-out: Control effect of (ii) alone at corresponding dose
  pest or weed control at […]: 53.2%
Cyperus difformis, (ii) 15 g a.i./mu
  Control effect of (ii) alone at corresponding dose: 53.2%

## Cn1nc(C(F)(F)F)c(CS(=O)(=O)C2=NOC(C)(C)C2)c1OC(F)F [Pyroxasulfone]
Monochoria vaginalis, (ii) 9 g a.i./mu
  Control effect of (ii) alone at corresponding dose: 34.5%
Pontederia vaginalis, 480 h, Monochoria vaginalis, (ii) 0.5 g a.i./mu, read-out: Control effect of (ii) alone at corresponding dose
  pest or weed control at […]: 6.3%
Pontederia vaginalis, 480 h, Monochoria vaginalis, (ii) 9 g a.i./mu, stem-leaf treatment, read-out: Control effect of (ii) alone at corresponding dose
  pest or weed control at 135 g/ha: 34.5%

## O=C(O)c1c(Cl)ccc2cc(Cl)cnc12 [Quinclorac]
480 h, Echinochloa phyllopogon, (ii) 3 g a.i./mu, stem-leaf treatment, read-out: Control effect of (ii) alone at corresponding dose
  pest or weed control at 45 g/ha: 35.2%
[2]
  pest or weed control at […]: 52.9%
[3]
  Control effect of (ii) alone at corresponding dose: 35.2%
[4]
  Control effect of (ii) alone at corresponding dose: 52.9%

## O=C1CCCC(=O)C1C(=O)c1c(Cl)ccc2cc(Cl)cnc12 [Quintrione]
Digitaria sanguinalis, (ii) 3 g a.i./mu, stem-leaf treatment
  Control effect of (ii) alone at corresponding dose: 15.2%
[3]
  Control effect of (ii) alone at corresponding dose: 15.8%
Echinochloa phyllopogon, (ii) 3 g a.i./mu, stem-leaf treatment
  Control effect of (ii) alone at corresponding dose: 15.8%
Echinochloa phyllopogon, (ii) 30 g a.i./mu
  Control effect of (ii) alone at corresponding dose: 66.7%
Echinochloa phyllopogon, (ii) 30 g a.i./mu, stem-leaf treatment
  Control effect of (ii) alone at corresponding dose: 66.7%

## Cc1nn(C)cc1C(=O)Oc1c(C(=O)c2ccc(C(F)(F)F)cc2S(C)(=O)=O)c(C)nn1C [Shuangzuocaotong]
Digitaria sanguinalis, (ii) 8 g a.i./mu, stem-leaf treatment
  Control effect of (ii) alone at corresponding dose: 75.1%
[5]
  Control effect of (ii) alone at corresponding dose: 7.8%
[6]
  Control effect of (ii) alone at corresponding dose: 7.8%
Echinochloa phyllopogon, (ii) 8 g a.i./mu
  Control effect of (ii) alone at corresponding dose: 70.9%
Echinochloa phyllopogon, (ii) 8 g a.i./mu, stem-leaf treatment
  Control effect of (ii) alone at corresponding dose: 70.9%

## CCNc1nc(NCC)nc(SC)n1 [Simetryn]
480 h, Echinochloa phyllopogon, (ii) 0.6 g a.i./mu, stem-leaf treatment, read-out: Control effect of (ii) alone at corresponding dose
  pest or weed control at 9 g/ha: 20.8%
[2]
  pest or weed control at […]: 45.3%
[5]
  Control effect of (ii) alone at corresponding dose: 20.8%
[4]
  Control effect of (ii) alone at corresponding dose: 45.3%

## CS(=O)(=O)c1ccc(C(=O)C2C(=O)CCCC2=O)c(Cl)c1COCC1CCCO1 (centres unmarked) [Tefuryltrione]
Cyperus difformis, (ii) 1 g a.i./mu
  Control effect of (ii) alone at corresponding dose: 37.4%
Cyperus difformis, (ii) 1 g a.i./mu, stem-leaf treatment
  Control effect of (ii) alone at corresponding dose: 37.4%
Cyperus difformis, (ii) 1.8 g a.i./mu
  Control effect of (ii) alone at corresponding dose: 63.2%

## CCNc1nc(Cl)nc(NC(C)(C)C)n1 [Terbuthylazine]
480 h, Echinochloa phyllopogon, (ii) 0.6 g a.i./mu, read-out: Control effect of (ii) alone at corresponding dose
  pest or weed control at 9 g/ha: 0.95%
[2]
  pest or weed control at […]: 18.6%
[4]
  Control effect of (ii) alone at corresponding dose: 18.6%

## COc1nc(OC)nc(C(=O)c2cccc(F)c2N(C)S(=O)(=O)C(F)F)n1 [Triafamone]
Monochoria vaginalis, (ii) 0.5 g a.i./mu
  Control effect of (ii) alone at corresponding dose: 16.3%
Monochoria vaginalis, (ii) 0.5 g a.i./mu, stem-leaf treatment
  Control effect of (ii) alone at corresponding dose: 16.3%
[1]
  Control effect of (ii) alone at corresponding dose: 29.6%
Monochoria vaginalis, (ii) 1 g a.i./mu, stem-leaf treatment
  Control effect of (ii) alone at corresponding dose: 29.6%

## Oxadiargyl
[5]
  Control effect of (ii) alone at corresponding dose: 3.4%
[6]
  Control effect of (ii) alone at corresponding dose: 3.4%
[4]
  Control effect of (ii) alone at corresponding dose: 35.3%
Echinochloa phyllopogon, (ii) 15 g a.i./mu, stem-leaf treatment
  Control effect of (ii) alone at corresponding dose: 35.3%

## Sanzuohuangcaotong
Monochoria vaginalis, (ii) 3 g a.i./mu
  Control effect of (ii) alone at corresponding dose: 21.5%
Monochoria vaginalis, (ii) 3 g a.i./mu, stem-leaf treatment
  Control effect of (ii) alone at corresponding dose: 21.5%
Monochoria vaginalis, (ii) 6 g a.i./mu
  Control effect of (ii) alone at corresponding dose: 40.1%
